Data on ten compounds can be found in PMC6271529, “Studies on the Anticonvulsant Activity and Influence on GABA-ergic Neurotransmission of 1,2,4-Triazole-3-thione-Based Compounds” (Molecules, 2014).

The structures appear in SMILES notation. Like-named read-outs stand apart in the source and are kept apart here. Bounds are passed on as bounds.

The test system of data set [1] is maximal electroshock-induced seizures. Description: Maximal electroshock-induced seizure (MES) test in mice. It counts as in vivo, mouse. Conditions: for responders at 300 mg/kg / ED50: Mus musculus, ip; for responders at 300 mg/kg: read-out: percent of animals protected against MES-induced seizures; for anticonvulsant activity (in words): MES test; for ED50: read-out: ED50 ± S.E. (MES test); for PI (TD50/ED50): protective index; for onset of action: significant protection as early as 15 min after parenteral administration. The procedure:
Additionally, all efforts were made to minimize animal suffering and to use only the number of animals necessary to produce reliable scientific data.
In the initial stage of the study, groups of eight mice were supplied with the compounds (administered intraperitoneally) in a dose of 300 mg/kg and then exposed to electrical impulse at fixed intervals (15, 30, 60, 120 min).
Each mouse was used only once.
Fresh drug solutions were prepared on each day of experimentation and administered at 15, 30, 60 and 120 min. before the initiation of maximal electroconvulsions. Electroconvulsions were produced by a current (0.2 s stimulus duration; 500 V, 50 Hz, fixed current intensity of 25 mA) delivered via ear-clip electrodes by a Rodent Shocker generator (constant-current stimulator Type 221, Hugo Sachs Elektronik, Freiburg, Germany). The criterion for the occurrence of seizure activity was the tonic hind limb extension. The animals were administered with a constant dose of 300 mg/kg of each of the examined compounds and were subjected to MES-induced seizures. […] The animals were administered with different doses of the tested compounds so as to obtain a variable percentage of protection against maximal electroconvulsions, allowing the construction of dose-response relationship lines for each examined compound administered i.p. at various pretreatment times, according to Litchfield and Wilcoxon. Each ED50 value represents the dose of the studied compounds that is required to protect 50% of the animals tested against MES-induced seizures.

Setting [2] is: 300 mg/kg i.p., pretreatment time 15 min, mice.
Setting [3] is: 300 mg/kg i.p., pretreatment time 30 min, mice.
Setting [4] is: 300 mg/kg i.p., pretreatment time 60 min, mice.
The mark [5] stands for this setting: 300 mg/kg i.p., pretreatment time 120 min, mice.
[6] abbreviates: 0.25 h, 300 mg/kg i.p., pretreatment time 15 min, mice.
Where [7] appears, read: 0.5 h, 300 mg/kg i.p., pretreatment time 30 min, mice.
Where [8] appears, read: 1 h, 300 mg/kg i.p., pretreatment time 60 min, mice.
[9] abbreviates: 2 h, 300 mg/kg i.p., pretreatment time 120 min, mice.
Setting [10] is: pretreatment time 120 min, mice.
Where [11] appears, read: chimney TD50 / MES ED50, pretreatment time 15 min.
Where [12] appears, read: chimney TD50 / MES ED50, pretreatment time 30 min.

Consider `Fc1cccc(-n2c(-c3cccc(Cl)c3)n[nH]c2=S)c1` [Compound 2a, 5-(3-Chlorophenyl)-4-(3-fluorophenyl)-2,4-dihydro-3H-1,2,4-triazole-3-thione], for which the melting point (usually the temperature of the solid-liquid transition) was in the range of 221 to 222 °C. Moreover, the “p/t, number of animals protected against MES-induced seizures / number tested” value in data set [1] (setting [2]) is 0/8. For the same compound, in data set [1] (setting [3]), the “p/t, number of animals protected against MES-induced seizures / number tested” value is recorded as 0/8. In addition, the “p/t, number of animals protected against MES-induced seizures / number tested” value in data set [1] (setting [4]) is on record as 0/8. In addition, in data set [1] (setting [5]), the “p/t, number of animals protected against MES-induced seizures / number tested” value was 0/8. For the same compound, the responders at 300 mg/kg in data set [1] (setting [6]) was 0%. In addition, the responders at 300 mg/kg in data set [1] (setting [7]) amounted to 0%. Further, in data set [1] (setting [8]), the responders at 300 mg/kg turned out to be 0%. The responders at 300 mg/kg in data set [1] (setting [9]) worked out at 0%.
Regarding `Fc1ccc(-n2c(-c3cccc(Cl)c3)n[nH]c2=S)cc1` [Compound 3a, 5-(3-Chlorophenyl)-4-(4-fluorophenyl)-2,4-dihydro-3H-1,2,4-triazole-3-thione], the “acute adverse effects at the screening dose” value in data set [1] (300 mg/kg i.p., mice, protective effect in MES could not be established) is “acute adverse effects”. The “anticonvulsant activity (in words)” value in data set [1] (mice) was “most potent activity”. The 50% effective dose (ED50) – broadly, the dose that gives a 50% effect, or the effect in half of the subjects – in data set [1] (pretreatment time 15 min, mice) is 35.2 ± 5.3 mg/kg; in data set [1] (pretreatment time 30 min, mice) it was 93.6 ± 9.4 mg/kg; in data set [1] (pretreatment time 60 min, mice), over 200 mg/kg; in data set [1] (setting [10]) it was over 200 mg/kg. In addition, in data set [1] (after i.p. administration, MES, mice), the “time to peak of the anticonvulsant action” value came to 15 min. In data set [1] (doses lowered to those not inducing neurotoxic effects, MES, mice), the “anticonvulsant activity at decreased doses” value was “retained its anticonvulsant activity”. In addition, in data set [1] (from ED50 values, MES), the “anticonvulsant activity relative to valproate” value was “approximately five and a half times higher than that of valproate”. For the same compound, the “PI (TD50/ED50)” value in data set [1] (setting [11]) came to 3.9; in data set [1] (setting [12]), 1.6. Besides, the onset of action result in data set [1] (MES, mice) was “quick onset of action”.
Consider `S=c1[nH]nc(-c2cccc(Cl)c2)n1-c1ccc(Cl)cc1` [Compound 4a, 4-(4-Chlorophenyl)-5-(3-chlorophenyl)-2,4-dihydro-3H-1,2,4-triazole-3-thione], for which the “p/t, number of animals protected against MES-induced seizures / number tested” value in data set [1] (setting [2]) is 8/8; in data set [1] (setting [3]) it was 8/8; in data set [1] (setting [4]) it was 7/8; in data set [1] (setting [5]), 7/8. Further, the responders at 300 mg/kg was found to be 100% in data set [1] (setting [6]), 100% in data set [1] (setting [7]), 87.5% in data set [1] (setting [8]) and 87.5% in data set [1] (setting [9]). Also, the ED50 in data set [1] (pretreatment time 15 min, mice) stood at 90.1 ± 15.7 mg/kg; in data set [1] (pretreatment time 30 min, mice), 135 ± 19.8 mg/kg; in data set [1] (pretreatment time 60 min, mice), 171 ± 21.4 mg/kg; in data set [1] (setting [10]), 184 ± 28 mg/kg. For the same compound, the “PI (TD50/ED50)” value was determined as 3.9 in data set [1] (setting [11]); 2.7 in data set [1] (setting [12]); 2.1 in data set [1] (chimney TD50 / MES ED50, pretreatment time 60 min); 2.0 in data set [1] (chimney TD50 / MES ED50, pretreatment time 120 min). Also, in data set [1] (MES, mice), the onset of action result is listed as “quick onset of action”.
Take `S=c1[nH]nc(-c2cccc(Cl)c2)n1-c1ccc(I)cc1` [Compound 7a, 5-(3-Chlorophenyl)-4-(4-iodophenyl)-2,4-dihydro-3H-1,2,4-triazole-3-thione]: the “p/t, number of animals protected against MES-induced seizures / number tested” value in data set [1] (setting [2]), in data set [1] (setting [3]), in data set [1] (setting [4]) and in data set [1] (setting [5]) was 0/8 in each case. In data set [1] (mice), the “anticonvulsant activity (in words)” value was “inactive”. In addition, the responders at 300 mg/kg in data set [1] (setting [6]), in data set [1] (setting [7]), in data set [1] (setting [8]) and in data set [1] (setting [9]) was 0% each time.
In turn, `Cc1ccccc1-n1c(-c2cccc(Cl)c2)n[nH]c1=S` [Compound 8a, 5-(3-Chlorophenyl)-4-(2-methylphenyl)-2,4-dihydro-3H-1,2,4-triazole-3-thione] had a melting point of 186 to 188 °C. For the same compound, the “p/t, number of animals protected against MES-induced seizures / number tested” value in data set [1] (setting [2]) is on record as 0/8. In data set [1] (setting [3]), the “p/t, number of animals protected against MES-induced seizures / number tested” value is recorded as 0/8. Also, the “p/t, number of animals protected against MES-induced seizures / number tested” value in data set [1] (setting [4]) is recorded as 0/8. For the same compound, the “p/t, number of animals protected against MES-induced seizures / number tested” value in data set [1] (setting [5]) is on record as 0/8. Moreover, the responders at 300 mg/kg in data set [1] (setting [6]) came out at 0%. The responders at 300 mg/kg in data set [1] (setting [7]) was determined as 0%. The responders at 300 mg/kg in data set [1] (setting [8]) stood at 0%. Besides, the responders at 300 mg/kg in data set [1] (setting [9]) stood at 0%.
Regarding `Cc1cccc(-n2c(-c3cccc(Cl)c3)n[nH]c2=S)c1` [Compound 9a, 5-(3-Chlorophenyl)-4-(3-methylphenyl)-2,4-dihydro-3H-1,2,4-triazole-3-thione], the melting point fell in the range of 200 to 201 °C. In addition, the “p/t, number of animals protected against MES-induced seizures / number tested” value in data set [1] (setting [2]) is on record as 0/8. In data set [1] (setting [3]), the “p/t, number of animals protected against MES-induced seizures / number tested” value was 0/8. The “p/t, number of animals protected against MES-induced seizures / number tested” value in data set [1] (setting [4]) is recorded as 0/8. The “p/t, number of animals protected against MES-induced seizures / number tested” value in data set [1] (setting [5]) is 1/8. Also, the responders at 300 mg/kg in data set [1] (setting [6]) was found to be 0%. Also, the responders at 300 mg/kg in data set [1] (setting [7]) stood at 0%. In data set [1] (setting [8]), the responders at 300 mg/kg was found to be 0%. The responders at 300 mg/kg in data set [1] (setting [9]) was 12.5%.
For the compound `S=c1n(CN2CCOCC2)nc(-c2cccc(Cl)c2)n1-c1ccc(Br)cc1` [Compound 19a, 4-(4-Bromophenyl)-5-(3-chlorophenyl)-2-(morpholin-4-ylmethyl)-2,4-dihydro-3H-1,2,4-triazole-3-thione], the “p/t, number of animals protected against MES-induced seizures / number tested” value in data set [1] (setting [2]), in data set [1] (setting [3]), in data set [1] (setting [4]) and in data set [1] (setting [5]) was 0/8 throughout. Also, the responders at 300 mg/kg in data set [1] (setting [6]), in data set [1] (setting [7]), in data set [1] (setting [8]) and in data set [1] (setting [9]) was 0% in each case.
In the case of `S=c1n(CN2CCN(c3ccccc3)CC2)nc(-c2cccc(Cl)c2)n1-c1ccc(Br)cc1` [Compound 20a, 4-(4-Bromophenyl)-5-(3-chlorophenyl)-2-[(4-phenylpiperazin-1-yl)methyl]-2,4-dihydro-3H-1,2,4-triazole-3-thione], the “p/t, number of animals protected against MES-induced seizures / number tested” value in data set [1] (setting [2]), in data set [1] (setting [3]), in data set [1] (setting [4]) and in data set [1] (setting [5]) was 0/8 in each case. Besides, the responders at 300 mg/kg in data set [1] (setting [6]), in data set [1] (setting [7]), in data set [1] (setting [8]) and in data set [1] (setting [9]) was 0% throughout.
Consider `Fc1ccc(N2CCN(Cn3nc(-c4cccc(Cl)c4)n(-c4ccc(Br)cc4)c3=S)CC2)cc1` [Compound 21a, 4-(4-Bromophenyl)-5-(3-chlorophenyl)-2-{[4-(4-fluorophenyl)piperazin-1-yl]methyl}-2,4-dihydro-3H-1,2,4-triazole-3-thione], for which the “p/t, number of animals protected against MES-induced seizures / number tested” value in data set [1] (setting [2]), in data set [1] (setting [3]), in data set [1] (setting [4]) and in data set [1] (setting [5]) was 0/8 in each case. The responders at 300 mg/kg in data set [1] (setting [6]), in data set [1] (setting [7]), in data set [1] (setting [8]) and in data set [1] (setting [9]) was 0% throughout.
On to `S=c1n(CN2CCOCC2)nc(-c2ccc(Cl)cc2)n1-c1ccc(Br)cc1` [Compound 28a, 4-(4-Bromophenyl)-5-(4-chlorophenyl)-2-(morpholin-4-ylmethyl)-2,4-dihydro-3H-1,2,4-triazole-3-thione], for which the “p/t, number of animals protected against MES-induced seizures / number tested” value in data set [1] (setting [2]), in data set [1] (setting [3]), in data set [1] (setting [4]) and in data set [1] (setting [5]) was 0/8 each time. For the same compound, the responders at 300 mg/kg in data set [1] (setting [6]), in data set [1] (setting [7]), in data set [1] (setting [8]) and in data set [1] (setting [9]) was 0% in each case.
